Where two headings read alike, the source gives them in different places.

Data set [1] concerns the target GSK-3α/β. The data set can be described thus: GSK-3α/β kinase assay (GS-1 peptide). The format is biochemical, porcine. The conditions noted are these: 15 μM ATP, 30° C. The procedure:
After incubating at 30° C. for 30 (thirty) minutes, the 25 μl aliquots of the supernatant were treated as described above.

The target of data set [2] is CK1δ/ε. Description: CK1δ/ε kinase assay (CK1-specific peptide). As to conditions: 15 μM ATP, 30° C. Format: biochemical, porcine. The method, then:
CK1δ/ε was purified from porcine brain by affinity chromatography on an immobilized axin fragment. It was assayed as described for CDK1 but using a CK1-specific peptide substrate.

Data set [3] concerns the target DYRK1A (Rattus norvegicus, UniProt Q63470). Description: DYRK1A kinase assay (myelin basic protein). Format: biochemical. As to conditions: 15 μM ATP, 30° C., myelin basic protein; read-out: IC50 DYRK1A.
For data set [4], the system named is SH-SY5Y cells. Description: Cell survival, MTS reduction, SH-SY5Y. Format: cell-based. The conditions noted are these: Homo sapiens. The method, then:
The human neuroblastoma cell line SH-SY5Y was grown in a DMEM medium with L-glutamine originating from Invitrogen (Cergy Pontoise, France), antibiotics and 10% by volume of FCS originating from Invitrogen. […] These compounds were also tested at various concentrations with regard to their effects on SH-SY5Y and HEK293 cells. […] The IC50 values were calculated from the dose-response curves and are given in micromoles (mean±standard deviation of two independent measurements carried out in triplicate). […] The survival of the cells was estimated by the assaying of the degree of reduction of MTS induced by this exposure. […] The ICS© values were calculated from dose-response curves and are given in micromoles in table 3 below.

Data set [5] relates to HCT116 (colon). Description: Cell survival, MTS reduction, HCT116. The format is cell-based. The conditions noted are these: Homo sapiens, HCT-116; forty eight hours after addition; read-out: Survival of the cells (IC50, μM) (MTS reduction) HCT116 (colon). The method, then: (§1) The viability of the cells was determined by measuring the reduction of 3-(4,5-dimethylthiazol-2-yl)-5-(3-carboxymethoxyphenyl)-2-(4-sulfophenyl)-2H/tetrazolium (MTS). The procedure was such as described in detail in Ribas J. et al., 2004, “Cell differentiation, caspase inhibition, and macromolecular synthesis blockage, but not BCL-2 or BCL-XL proteins, protect SH-SYS5 cells from apoptosis triggered by two CDK inhibitory drugs”, Exp. Cell Res., 2004, 195, 9-24.
(§2) The effects of meriolins 2 and 3 on the survival of various cell lines were also tested at various concentrations in order to determine their effects on eight different cell lines. The survival of the cells was expressed forty eight hours after the addition of each meriolin, using the MTS reduction test. The ICS© values were calculated from dose-response curves and are given in micromoles in table 3 below.

In data set [6] the test system is MDA-MB-231 (breast). The data set can be described thus: Cell survival, MTS reduction, MDA-MB-231. Format: cell-based. As to conditions: Homo sapiens, forty eight hours after addition, read-out: Survival of the cells (IC50, μM) (MTS reduction) MDA-MB-231 (breast). The procedure:
as §1, §2

In data set [7] the test system is PC3 (prostate). Description: Cell survival, MTS reduction, PC3. The conditions noted are these: forty eight hours after addition; read-out: Survival of the cells (IC50, μM) (MTS reduction) PC3 (prostate). Format: cell-based. The procedure: as §1, §2
For data set [8], the system named is Huh7 (hepatoma). The data set can be described thus: Cell survival, MTS reduction, Huh7. The format is cell-based. As to conditions: Homo sapiens, Huh-7; forty eight hours after addition; read-out: Survival of the cells (IC50, μM) (MTS reduction) Huh7 (hepatoma). The procedure:
as §1, §2

Data set [9] concerns F1 (hepatoma). The data set can be described thus: Cell survival, MTS reduction, F1. Format: cell-based. The conditions noted are these: forty eight hours after addition; read-out: Survival of the cells (IC50, μM) (MTS reduction) F1 (hepatoma). The method, then: as §1, §2
Data set [10] concerns HEK293 (embryonic kidney). The data set can be described thus: Cell survival, MTS reduction, HEK293. Format: cell-based. The conditions noted are these: Homo sapiens, forty eight hours after addition, read-out: Survival of the cells (IC50, μM) (MTS reduction) HEK293 (embryonic kidney). The method, then:
The HEK293 cells were grown in an MEM medium with Glutamax originating from Invitrogen, antibiotics and 10% by volume of FCS.
as §1
The effects of meriolins 2 and 3 on the survival of various cell lines were also tested at various concentrations in order to determine their effects on eight different cell lines. […] The ICS© values were calculated from dose-response curves and are given in micromoles in table 3 below.

Data set [11] concerns Human foreskin fibroblasts. Description: Cell survival, MTS reduction, human foreskin fibroblasts. Format: cell-based. The conditions noted are these: Fibroblast, forty eight hours after addition, read-out: Survival of the cells (IC50, μM) (MTS reduction) Human foreskin fibroblasts. The procedure:
as §1, §2

For data set [12], the system named is A4573 cells xenograft. Description: In vivo antitumor activity, A4573 xenograft. The arrangement: species or system athymic male nude mice. As to conditions: 50 mg/kg intraperitoneal once daily, versus control. The method, then:
Athymic male nude mice (aged from 5 to 6 weeks) were obtained from the National Cancer Institute. The mice were housed in the animal facility of the Division of Comparative Medicine of Georgetown University. All the studies on the animals were carried out under protocols approved by the Animal Care and Use Committee of Georgetown University. The mice were inoculated by subcutaneous injection into the right posterior flank with 4×10^6 A4573 cells in 100 μl of Matrigel basic membrane matrix (Becton Dickinson). Xenografts were grown to a mean tumor volume of 129±30 mm^3. The compounds tested were first dissolved in either absolute methanol or DMSL (1 volume). A carrier solution was produced using a diluent containing 10% Tween 80, 20% N—N-dimethylacetamide and 70% polyethylene glycol 400 (Fisher Scientific, Pittsburgh, Pa.). The mice were randomly divided into two groups (six animals per group) and the treatment was initiated. […] At these times, the tumors were removed, measured and prepared for TUNEL assays. The primary tumor volumes were calculated by the formula V=(1/2)a×b^2, where a is the longest tumor axis and b is the shortest tumor axis. The values are given in the form of mean±standard deviation values in quantitative experiments. […]

In data set [13] the target is CDK1/cyclin B. Description: CDK1/cyclin B kinase assay (histone H1, [γ-33P]-ATP). As to conditions: read-out: IC50 CDK1/cyclin B, 15 μM ATP, 30° C.
Description: Controls were prepared with appropriate dilutions of dimethyl sulfoxide.
After incubating at 30° C. for 30 minutes, 25 μl aliquots of the supernatant were spotted onto filters made of Whatman P81 phosphocellulose paper and, 20 seconds later, the filters were washed 5 times (for at least 5 (five) minutes each time) in a solution of 10 ml of phosphoric acid/liter of water. The wet filters were subjected to counting in the presence of an ACS scintillation fluid from Amersham.
In data set [14] the target is T1, protein kinase hSGK1 (Homo sapiens, UniProt O00141).
T1 sequence (O00141 1-431): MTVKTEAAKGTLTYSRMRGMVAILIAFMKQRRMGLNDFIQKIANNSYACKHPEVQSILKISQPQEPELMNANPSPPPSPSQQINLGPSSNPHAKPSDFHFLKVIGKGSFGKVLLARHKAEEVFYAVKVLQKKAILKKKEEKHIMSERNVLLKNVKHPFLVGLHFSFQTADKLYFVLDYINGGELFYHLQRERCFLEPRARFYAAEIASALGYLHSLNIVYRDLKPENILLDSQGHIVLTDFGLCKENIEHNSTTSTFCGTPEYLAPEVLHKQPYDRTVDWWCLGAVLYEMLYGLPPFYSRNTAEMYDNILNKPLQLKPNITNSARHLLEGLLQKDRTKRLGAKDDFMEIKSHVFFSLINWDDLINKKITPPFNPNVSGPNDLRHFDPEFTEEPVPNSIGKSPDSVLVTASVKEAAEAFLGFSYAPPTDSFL
The conditions noted are these: from Angew. Chem. Int. Ed., 2005, 44, 6951-6956; cited from earlier work.

Data set [15] has as its target T2, CDK2/cyclin A (Homo sapiens, UniProt P24941).
T2 construct: made in house; host or cells: insect cells
Description: CDK2/cyclin A kinase assay. The format is biochemical. As to conditions: 15 μM ATP, 30° C., histone H1; read-out: IC50 CDK2/cyclinA. The method, then:
CDK2/cyclin A (human, recombinant, expressed in insect cells) was assayed as described for CDK1/cyclin B.

Data set [16] deals with CDK5/p25 (Homo sapiens, UniProt Q00535). The data set can be described thus: CDK5/p25 kinase assay. The format is biochemical, mammalian. The conditions noted are these: 15 μM ATP, 30° C., histone H1; read-out: IC50 CDK5/p25. The procedure: CDK5/p25 was reconstituted by mixing equal amounts of recombinant mammalian CDK5 and p25 expressed in E. coli as GST (glutathione S-transferase) fusion protein and purified by affinity chromatography on glutathione-agarose (vectors provided by Doctor L. H. Tsai) (p25 is a truncated version of p35, the 35-kDa CDK5 activator). Its activity was assayed with histone H1 in buffer C as described for CDK1/cyclin B.
Chain of CDK5/p25 (Q00535 whole entry, species assumed, the tested form may be a part): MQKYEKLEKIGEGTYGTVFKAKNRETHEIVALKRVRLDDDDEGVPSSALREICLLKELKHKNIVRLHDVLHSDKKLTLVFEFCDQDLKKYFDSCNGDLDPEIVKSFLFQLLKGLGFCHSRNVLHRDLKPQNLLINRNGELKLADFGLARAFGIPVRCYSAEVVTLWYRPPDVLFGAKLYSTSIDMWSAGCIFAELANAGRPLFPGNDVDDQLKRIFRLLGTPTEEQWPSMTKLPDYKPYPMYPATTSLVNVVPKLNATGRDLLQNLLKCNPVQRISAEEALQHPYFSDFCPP
Chain of CDK5/p25 (Q15078 99-307 partner limits assumed, species assumed): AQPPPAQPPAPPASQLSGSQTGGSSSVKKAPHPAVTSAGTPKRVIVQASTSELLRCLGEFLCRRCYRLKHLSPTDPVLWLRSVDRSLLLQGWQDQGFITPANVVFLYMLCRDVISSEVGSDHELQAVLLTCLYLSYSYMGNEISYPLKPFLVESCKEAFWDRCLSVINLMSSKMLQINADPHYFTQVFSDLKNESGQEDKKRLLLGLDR

Data set [17] concerns the target T3, CDK9/cyclin T (Homo sapiens, UniProt P50750).
T3 construct: made in house; host or cells: insect cells
Description: CDK9/cyclin T kinase assay. The format is biochemical. As to conditions: 15 μM ATP, 30° C., pRB fragment.

Where [18] appears, read: 8 h, Table 3, forty eight hours after addition, read-out: Survival of the cells (IC50, μM) (MTS reduction) SH-SY5Y (neuroblastoma).
Setting [19] is: Table 2, exposed for 24 hours, read-out: IC50 survival of SH-SY5Y cells (MTS reduction).

T3 sequence (P50750 whole entry): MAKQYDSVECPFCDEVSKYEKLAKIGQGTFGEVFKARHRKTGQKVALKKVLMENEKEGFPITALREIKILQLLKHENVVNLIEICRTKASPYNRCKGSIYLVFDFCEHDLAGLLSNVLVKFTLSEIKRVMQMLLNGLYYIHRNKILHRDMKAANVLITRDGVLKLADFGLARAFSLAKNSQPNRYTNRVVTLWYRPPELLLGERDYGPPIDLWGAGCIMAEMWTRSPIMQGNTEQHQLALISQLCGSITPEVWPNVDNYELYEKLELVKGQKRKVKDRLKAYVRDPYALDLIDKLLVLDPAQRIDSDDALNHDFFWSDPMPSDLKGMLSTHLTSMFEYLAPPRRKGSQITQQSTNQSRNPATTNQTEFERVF
T3 sequence (O60563 whole entry partner): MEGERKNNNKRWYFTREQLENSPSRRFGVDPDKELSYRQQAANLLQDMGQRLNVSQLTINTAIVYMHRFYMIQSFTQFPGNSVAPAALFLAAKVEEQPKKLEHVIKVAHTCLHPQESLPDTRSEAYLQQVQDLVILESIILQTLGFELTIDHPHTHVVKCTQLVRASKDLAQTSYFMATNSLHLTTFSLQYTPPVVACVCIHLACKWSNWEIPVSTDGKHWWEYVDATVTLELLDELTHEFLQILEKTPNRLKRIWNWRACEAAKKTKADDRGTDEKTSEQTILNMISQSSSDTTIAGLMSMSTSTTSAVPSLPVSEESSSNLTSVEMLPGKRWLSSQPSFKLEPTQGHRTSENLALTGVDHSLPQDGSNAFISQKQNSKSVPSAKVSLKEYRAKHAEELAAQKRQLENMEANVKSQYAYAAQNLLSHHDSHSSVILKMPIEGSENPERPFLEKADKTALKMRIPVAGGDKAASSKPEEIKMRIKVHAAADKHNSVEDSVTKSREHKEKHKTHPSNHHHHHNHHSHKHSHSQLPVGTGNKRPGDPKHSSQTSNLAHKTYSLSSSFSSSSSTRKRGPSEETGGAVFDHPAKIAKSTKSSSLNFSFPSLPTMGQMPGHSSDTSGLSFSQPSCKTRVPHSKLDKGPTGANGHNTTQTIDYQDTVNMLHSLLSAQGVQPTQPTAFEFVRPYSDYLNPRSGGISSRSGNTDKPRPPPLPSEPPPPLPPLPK

As for `COc1ccnc2[nH]cc(-c3ccnc(N)n3)c12` [Meriolin 3, 3-[(2-amino)pyrimidin-4-yl]-4-methoxy-1H-pyrrolo[2,3-b]pyridine], the IC50 in data set [1] turned out to be 0.23 µM; in data set [2] it was 0.2 µM; in [3], 0.029 µM; in [4] (setting [18]), 0.072 µM; in data set [4] (setting [19]), 0.073 µM; in data set [5], 0.94 µM. Moreover, the IC50 amounted to 19 µM in data set [6]; 95 µM in [7]; 0.12 µM in data set [8]; 0.26 µM in data set [9]; 0.38 µM in data set [10]; 8 µM in data set [11]. Besides, the IC50 in data set [13] was 0.17 µM. Moreover, the “mean tumor volume over time (FIG. 3)” value in data set [12] is “only increases slightly over time”.
Take `Nc1nccc(-c2c[nH]c3ncccc23)n1` [Meriolin 1, 3-[(2-amino)pyrimidin-4-yl]-1H-pyrrolo[2,3-b]pyridine, reference compound]: the IC50 in data set [3] was 0.13 µM; in [4] (24 h, read-out: IC50 survival of SH-SY5Y cells (MTS reduction)), 0.67 µM; in [14], 2.4 µM.
For `Nc1nccc(-c2c[nH]c3nccc(O)c23)n1` [Meriolin 2, 3-[(2-amino)pyrimidin-4-yl]-4-hydroxy-1H-pyrrolo[2,3-b]pyridine], the IC50 in data set [1] was 0.4 µM; in data set [2] it was 0.05 µM; in data set [3], 0.035 µM; in data set [4] (setting [18]), 0.41 µM; in data set [4] (setting [19]) it was 0.41 µM; in [5] it was 0.08 µM. In addition, the IC50 in [6] is 1.8 µM; in data set [7], 17.3 µM; in data set [8], 1 µM; in data set [9] it was 2 µM; in [10], 2.6 µM; in data set [11] it was 20 µM. In addition, the IC50 in data set [13] was found to be 0.057 µM.
Take `Nc1nccc(-c2c[nH]c3nccc(OCc4ccccc4)c23)n1` [Meriolin 15, 3-[(2-amino)pyrimidin-4-yl]-4-(benzyloxy)-1H-pyrrolo[2,3-b]pyridine]: the melting point is over 210 °C. Besides, the IC50 in [15] stood at 0.0016 µM. The IC50 in data set [16] was determined as 0.002 µM. For the same compound, the IC50 in data set [17] worked out at 0.0072 µM. In data set [1], this compound registered an IC50 of 0.0033 µM. The compound further returned an IC50 in data set [2] of 0.13 µM. Besides, the IC50 in data set [3] was determined as 0.04 µM. Moreover, in data set [4] (setting [19]), the IC50 stood at 0.013 µM. In data set [13], the IC50 came out at 0.0023 µM.
